Test results published in patent US8080688B2, “3, 4-disubstituted phenoxyphenylamidines and use thereof as fungicides” (Bayer Cropscience AG, priority 2007, dated 2011).
Where two headings read alike, the source gives them in different places.

Assay: logP
Assay type: physicochemical

## CCN(C)C=Nc1cc(C)c(Oc2ccc3c(c2)CCCC3)cc1C [Compound 13, N-Ethyl-N-methyl-N′-[4-(5,6,7,8-tetrahydro-2-naphthoxy)-2,5-dimethylphenyl]formamidine]
acidic, read-out: logP acidic
  logP: 2.69
neutral, read-out: logP neutr.
  logP: 6.31
pH 2.3, pH 2.3, read-out: log P (pH2.3)
  logP: 2.14
